The results in this text go back to ChEMBL document CHEMBL1201862, “PubChem BioAssay data set” (2004).

Some test systems named below: OVCAR-5; UACC-62; SR; ACHN; MDA-MB-231; A549; MDA-N; LOX IMVI; M14; SNB-75; IGROV-1; Hs-578T; 786-0; T47D; SK-OV-3; NCI-H23; DU-145; OVCAR-4; MCF7; KM12.
What all share (experiment): NCI tumour cell line growth inhibition, 48 h

Each structure is given as a SMILES string.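 96-well plates; 48 h exposure; 5 concentrations. Endpoints by linear interpolation between flanking doses. Not reached: highest tested concentration assigned. Abbreviation: GI50, concentration required for 50% inhibition of growth.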 Active and inactive are the calls of the source. Cut-off read from the data, not from the text of the source: active = GI50 up to about 1.1 µM and inactive = higher.

As for `Cc1cc(O)ccc1C1(c2ccc(F)cc2)OC(=O)c2ccccc21` (configuration not stated), the GI50 in the assay with OVCAR-5 was 6.64 µM (inactive); in the assay with UACC-62, 3.39 µM (inactive); in the assay on SR it was 13.4 µM (inactive); with ACHN, 4.17 µM (inactive); in the assay on MDA-MB-231, 7.01 µM (inactive); with A549, 5.24 µM (inactive). Further, the GI50 was 11.6 µM (inactive) in the assay on MDA-N; 2.31 µM (inactive) in the assay on LOX IMVI; 13.6 µM (inactive) with M14; 1.93 µM (inactive) in the assay on SNB-75; 2.21 µM (inactive) in the assay with IGROV-1; 0.263 µM (active) in the assay on Hs-578T. In addition, the GI50 in the assay with 786-0 was 8.47 µM (inactive); with T47D, 0.318 µM (active); with SK-OV-3, 3.65 µM (inactive); in the assay with NCI-H23 it was 0.787 µM (active); in the assay with DU-145 it was 4.61 µM (inactive); with OVCAR-4 it was 0.289 µM (active). Moreover, the GI50 in the assay on MCF7 was 1.34 µM (inactive).

Regarding `CCc1n[nH]c(=O)n1/N=C/c1ccccc1Cl`, the GI50 in the assay on OVCAR-5 is > 100 µM (inactive); with KM12 it was 93.8 µM (inactive); in the assay on UACC-62, 53.6 µM (inactive); in the assay with SR, > 100 µM (inactive); in the assay with ACHN, > 100 µM (inactive); in the assay on MDA-MB-231, > 100 µM (inactive). In addition, the GI50 in the assay on A549 was > 100 µM (inactive); in the assay on MDA-N, > 100 µM (inactive); with LOX IMVI, > 100 µM (inactive); in the assay with M14 it was > 100 µM (inactive); in the assay on IGROV-1 it was 78.3 µM (inactive); with Hs-578T, 2.69 µM (inactive). Besides, the GI50 in the assay with 786-0, in the assay on T47D, in the assay with SK-OV-3, in the assay on NCI-H23, with DU-145 and in the assay on OVCAR-4 was > 100 µM (inactive) throughout. Besides, the GI50 in the assay with MCF7 was > 100 µM (inactive).

Turning to `O=C(Sc1n[nH]c(=O)[nH]c1=O)c1cccc2nc3ccccc3nc12`, the GI50 with OVCAR-5 is > 100 µM (inactive); in the assay on KM12, 39 µM (inactive); in the assay with UACC-62 it was 38.8 µM (inactive); with SR, > 100 µM (inactive); in the assay with ACHN, 30.2 µM (inactive); in the assay on MDA-MB-231, > 100 µM (inactive). Also, the GI50 in the assay with A549 is 4.05 µM (inactive); in the assay with MDA-N, 11.8 µM (inactive); with LOX IMVI, 18.5 µM (inactive); with M14 it was 23.6 µM (inactive); in the assay with IGROV-1, > 100 µM (inactive); with Hs-578T, 20 µM (inactive). The GI50 with 786-0 is > 100 µM (inactive); in the assay on T47D, > 100 µM (inactive); with SK-OV-3 it was > 100 µM (inactive); in the assay on NCI-H23 it was 3.78 µM (inactive); in the assay with DU-145 it was 10.6 µM (inactive); with OVCAR-4 it was 76.9 µM (inactive). Besides, the GI50 with MCF7 was 7.67 µM (inactive).

On to `Cc1ccc(-c2cnc(NC3OC(COC(=O)c4ccccc4)C(OC(=O)c4ccccc4)C(OC(=O)c4ccccc4)C3OC(=O)c3ccccc3)s2)cc1` (configuration not stated), for which the GI50 was 61.7 µM (inactive) with OVCAR-5; 94.6 µM (inactive) in the assay with UACC-62; > 100 µM (inactive) in the assay with SR; > 100 µM (inactive) in the assay with ACHN; > 100 µM (inactive) in the assay on MDA-MB-231; > 100 µM (inactive) with A549. Further, the GI50 with MDA-N was > 100 µM (inactive); in the assay with LOX IMVI, > 100 µM (inactive); in the assay with M14 it was 40.6 µM (inactive); with SNB-75, > 100 µM (inactive); in the assay on IGROV-1 it was > 100 µM (inactive); in the assay on Hs-578T it was 82 µM (inactive). Moreover, the GI50 with 786-0 is 44.6 µM (inactive); in the assay with T47D, > 100 µM (inactive); in the assay with SK-OV-3 it was > 100 µM (inactive); with NCI-H23, > 100 µM (inactive); with DU-145, > 100 µM (inactive); in the assay with OVCAR-4 it was 68.1 µM (inactive). Also, the GI50 with MCF7 was > 100 µM (inactive).

On to `NC(=O)C(NC=O)c1ccccc1` (configuration not stated), for which the GI50 with KM12, in the assay with UACC-62, with SR, in the assay on ACHN, with MDA-MB-231 and in the assay with A549 was > 100 µM (inactive) throughout. In addition, the GI50 with MDA-N, in the assay on LOX IMVI, in the assay with M14, with SNB-75, with IGROV-1 and in the assay with Hs-578T was > 100 µM (inactive) in each case. Moreover, the GI50 in the assay with 786-0, in the assay with T47D, with SK-OV-3, in the assay with NCI-H23, in the assay with DU-145 and in the assay with OVCAR-4 was > 100 µM (inactive) each time. For the same compound, the GI50 with MCF7 is > 100 µM (inactive).

Consider `CC(Br)C(=O)NN1C2=C(Nc3ccccc31)c1cccc3cccc2c13` (configuration not stated), for which the GI50 in the assay on OVCAR-5 was > 100 µM (inactive); in the assay on KM12, > 100 µM (inactive); in the assay with SR, 41 µM (inactive); in the assay on ACHN it was 31.2 µM (inactive); in the assay on MDA-MB-231, > 100 µM (inactive); in the assay on A549, 57.9 µM (inactive). Also, the GI50 in the assay with MDA-N is 90.6 µM (inactive); in the assay with LOX IMVI, 41.4 µM (inactive); with M14, > 100 µM (inactive); in the assay on SNB-75 it was 40.9 µM (inactive); with IGROV-1, 34.4 µM (inactive); in the assay with Hs-578T, 58.9 µM (inactive). For the same compound, the GI50 with 786-0 was 45.9 µM (inactive); in the assay with T47D it was 2.29 µM (inactive); with NCI-H23, > 100 µM (inactive); in the assay with DU-145, > 100 µM (inactive); in the assay on MCF7 it was 34.5 µM (inactive).

As for `C=C1C(=O)O[C@@H]2O[C@@]3(C)CC[C@H]4[C@H](C)CC[C@@H]1[C@@]24O3` [DEOXYARTEMISITENE], the GI50 in the assay on OVCAR-5 is 38.5 µM (inactive); with KM12 it was 4.19 µM (inactive); in the assay on UACC-62, 13 µM (inactive); with SR, 7.18 µM (inactive); with ACHN, 11.3 µM (inactive); in the assay with MDA-MB-231 it was 25.9 µM (inactive). Moreover, the GI50 in the assay on A549 is 34.8 µM (inactive); with MDA-N, 13.7 µM (inactive); in the assay with LOX IMVI, 16.1 µM (inactive); in the assay on M14, 24.9 µM (inactive); in the assay with IGROV-1, 3.38 µM (inactive); with Hs-578T, 39 µM (inactive). Also, the GI50 with 786-0 was 13.6 µM (inactive); with T47D, 13.6 µM (inactive); in the assay on SK-OV-3, 36.1 µM (inactive); in the assay on NCI-H23 it was 15.2 µM (inactive); with DU-145, 12.9 µM (inactive); in the assay with OVCAR-4 it was 15.8 µM (inactive). The GI50 in the assay on MCF7 is 5.52 µM (inactive).

For the compound `O=C(N/N=C\c1cccc2c([N+](=O)[O-])cccc12)Nc1ccccc1`, the GI50 with OVCAR-5 is 15.1 µM (inactive); in the assay with KM12, 14.9 µM (inactive); in the assay on UACC-62, 10.4 µM (inactive); in the assay on SR, 11.3 µM (inactive); in the assay on ACHN, 14.2 µM (inactive); in the assay with MDA-MB-231, 17.8 µM (inactive). For the same compound, the GI50 with A549 is 10.3 µM (inactive); in the assay with MDA-N, 13.1 µM (inactive); in the assay on LOX IMVI, 7.74 µM (inactive); in the assay with M14, 12.9 µM (inactive); in the assay on SNB-75, 22.3 µM (inactive); in the assay on IGROV-1, 19 µM (inactive). In addition, the GI50 in the assay with Hs-578T is 13.2 µM (inactive); in the assay on 786-0, 16.6 µM (inactive); with T47D it was 6.04 µM (inactive); with NCI-H23, 15.8 µM (inactive); in the assay with DU-145, 26.9 µM (inactive); with OVCAR-4, 11.6 µM (inactive). In addition, the GI50 in the assay on MCF7 is 8.83 µM (inactive).

`COC(=O)[C@@H](NC(=O)N(CCC#N)CCCN(C(=O)N[C@H](Cc1ccccc1)C(=O)OC)c1ccccc1)C(C)C`: the GI50 was > 100 µM (inactive) in the assay on OVCAR-5; > 100 µM (inactive) with KM12; 33.3 µM (inactive) in the assay on UACC-62; 85.5 µM (inactive) in the assay on ACHN; > 100 µM (inactive) in the assay on MDA-MB-231; > 100 µM (inactive) in the assay with A549. Besides, the GI50 is 95.3 µM (inactive) in the assay on MDA-N; 97.3 µM (inactive) in the assay with LOX IMVI; > 100 µM (inactive) with M14; > 100 µM (inactive) with SNB-75; 59.3 µM (inactive) in the assay on IGROV-1; > 100 µM (inactive) in the assay on Hs-578T. The GI50 in the assay with 786-0 is > 100 µM (inactive); in the assay on T47D, 36.8 µM (inactive); with SK-OV-3 it was > 100 µM (inactive); in the assay on NCI-H23, > 100 µM (inactive); with DU-145, > 100 µM (inactive); with OVCAR-4 it was 50.4 µM (inactive). For the same compound, the GI50 with MCF7 was > 100 µM (inactive).

Regarding `O=C(n1c(=O)n(-c2ccc(Cl)cc2)c(=O)n1C(=O)C(Cl)(Cl)Cl)C(Cl)(Cl)Cl`, the GI50 with OVCAR-5 is > 10 µM (inactive); in the assay on KM12, 82.8 µM (inactive); with UACC-62, > 100 µM (inactive); with SR it was > 100 µM (inactive); in the assay with ACHN, 12.7 µM (inactive); in the assay on MDA-MB-231, 7.67 µM (inactive). Also, the GI50 with A549, in the assay on MDA-N, in the assay on LOX IMVI, in the assay with IGROV-1, with Hs-578T and in the assay on 786-0 was > 100 µM (inactive) in each case. The GI50 in the assay on T47D, in the assay on SK-OV-3, in the assay on NCI-H23, in the assay with DU-145, with OVCAR-4 and in the assay on MCF7 was > 100 µM (inactive) in each case.
